{"source": "patent US11167007B2", "about": "“FOXM1 modulators and uses thereof” (City of Hope, priority 2016, dated 2021)", "key": {"[1]": {"test": "Pilot pharmacokinetic study, plasma and spinal fluid by LC-MS/MS", "format": "in vivo, rat", "protocol": "(§1) Animals and Drugs. This study was carried out in strict accordance with the recommendations in the Guide for the Care and Use of Laboratory Animals of the National Institutes of Health. All experiments were performed under the IUCAC approval of City of Hope. Animals were purchased from Jackson Laboratory (Bar Harbor, Main). For the pilot pharmacokinetic experiment, nine male Sprague Dawley rats (n=3) were administered 1, 10, or 100 mg/kg intraperitoneal injections thrice per week for four weeks. One hour following the final dose, blood and spinal fluid were collected and analyzed by mass spectrometry. For the efficacy experiment, rats were divided into 3 groups (n=7) as follows: intact, castrated, and thiostrepton. Thiostrepton was dissolved in 20% DMSO and 80% PEG400 (Sigma Aldrich) and administered at a concentration of 50 mg/kg per day via an IP osmotic pump implant (Alzet). Following a treatment period of 7 days, rats were euthanized and organs harvested, weighed and processed for quantitative RT-PCR.\nLC-MS/MS methods. Dried samples were resuspended in tetrahydrofuran spiked with 5 pg/μl reserpine, which was used as an instrument response control. Resuspended samples were separated with an Agilent 1290 UHPLC system (Agilent Technologies, Santa Clara, Calif.) and a Waters Acquity CSH C18 column (Waters, Millford, Mass.) using a linear gradient from 95% buffer A (0.1% formic acid in 60% water/40% acetonitrile) to 100% buffer B (0.1% formic acid in 90% isopropanol/10% acetonitrile) over 2.5 minutes at 380 μL/minute. The UHPLC column eluent was sprayed into an Agilent 6490 triple quadrupole mass spectrometer equipped with a JetStream source (Agilent Technologies). Thiostrepton was detected by monitoring fragments from the doubly charged ion (m/z 832.9) at m/z 1247.4 and 1230.3. Data was analyzed using Agilent MassHunter quantitative analysis software.\nA pilot pharmacokinetic study in rats was conducted to achieve desired dosing and to determine if thiostrepton crosses the blood brain barrier. Rats (n=3/group) received low (1 mg/kg), medium (10 mg/kg), or high (100 mg/kg) doses of thiostepton by intraperitoneal (IP) injection, three times a week for four weeks. One hour after the final dose, animals were euthanized and blood and spinal fluid was collected and analyzed by LC-MS/MS (FIG. 5A)."}, "[2]": {"system": "FOXM1", "test": "Immunohistochemistry of FOXM1 in spinal cord", "format": "in vivo, rat", "conditions": "rats, FIG. 5C", "protocol": "as §1, with “For the efficacy experiment, rats were divided into 3 groups (n=7) as follows: intact, castrated, and thiostrepton. Thiostrepton was dissolved in 20% DMSO and 80% PEG400 (Sigma Aldrich) and administered at a concentration of 50 mg/kg per day via an IP osmotic pump implant (Alzet).” left out\nImmunohistochemistry. […] A veterinary pathologist, blinded to the identity of the treatment groups, scored the spinal cord sections based on the intensity of FOXM1 expression, which was typically uniform across the entirety of a section, creating a scale ranging from 0-2 in both white matter and grey matter. […] As a secondary quantification method, Image J was used to determine pixel density of FOXM1 staining. […]\nIntact and castrate cohorts were included as controls. […] As a secondary quantification method, Image J was used to determine pixel density of FOXM1 staining. […]"}, "[3]": {"biological_target": "T1, AR with a 112 glutamine tract (Homo sapiens, UniProt P10275, INS80QQQQQQQQQQQQQQQQQQQQQQQQQQQQQQQQQQQQQQQQQQQQQQQQQQQQQQQQQQQQQQQQQQQQQQQQQQQQQQQQQQQQQQQQQ)", "T1 construct": "expressed in transfected cells; host or cells: PC12 (ARQ112), inducible", "T1 sequence (P10275 with tags, fused parts or gaps with the stated changes)": "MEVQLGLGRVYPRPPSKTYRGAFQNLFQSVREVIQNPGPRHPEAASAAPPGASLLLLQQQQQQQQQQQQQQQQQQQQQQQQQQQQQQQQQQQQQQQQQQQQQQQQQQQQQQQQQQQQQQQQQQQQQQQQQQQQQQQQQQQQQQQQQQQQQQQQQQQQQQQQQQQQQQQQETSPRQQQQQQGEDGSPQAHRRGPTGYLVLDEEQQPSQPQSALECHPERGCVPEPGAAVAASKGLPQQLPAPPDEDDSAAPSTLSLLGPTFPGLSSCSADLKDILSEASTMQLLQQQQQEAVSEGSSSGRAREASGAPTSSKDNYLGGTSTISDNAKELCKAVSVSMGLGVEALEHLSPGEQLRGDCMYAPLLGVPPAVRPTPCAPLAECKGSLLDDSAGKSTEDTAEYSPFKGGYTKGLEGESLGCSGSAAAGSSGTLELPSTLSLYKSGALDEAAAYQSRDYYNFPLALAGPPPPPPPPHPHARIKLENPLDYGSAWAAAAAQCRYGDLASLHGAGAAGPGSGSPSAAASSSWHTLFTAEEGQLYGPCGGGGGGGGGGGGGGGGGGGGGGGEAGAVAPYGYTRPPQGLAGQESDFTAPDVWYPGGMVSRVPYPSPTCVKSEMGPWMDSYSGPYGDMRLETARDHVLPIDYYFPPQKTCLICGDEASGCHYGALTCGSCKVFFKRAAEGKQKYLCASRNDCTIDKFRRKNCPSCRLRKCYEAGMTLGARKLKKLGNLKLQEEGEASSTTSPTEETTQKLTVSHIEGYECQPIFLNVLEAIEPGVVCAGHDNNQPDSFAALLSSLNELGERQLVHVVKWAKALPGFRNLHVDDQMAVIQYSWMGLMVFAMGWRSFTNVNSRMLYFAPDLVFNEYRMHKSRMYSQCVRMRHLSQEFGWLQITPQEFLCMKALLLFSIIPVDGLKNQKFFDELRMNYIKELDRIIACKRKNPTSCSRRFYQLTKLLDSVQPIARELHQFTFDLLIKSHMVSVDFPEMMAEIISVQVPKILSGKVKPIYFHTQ", "test": "Androgen-responsive luciferase reporter assay in PC12 (ARQ112) neuronal cells", "format": "cell-based", "conditions": "PC12 cells expressing AR with 112 glutamine tract, FIG. 2B", "from_the_text": "Luciferase Reporter Assay. Cells were transfected using Lipofectamine Plus (Invitrogen) with a normalization plasmid (pRL-SV40, Promega) and an androgen responsive plasmid (MMTV-luciferase or PSA-luciferase) as described in Jones et al, ACS Chem Biol, 3(7):412-8 (2008), and, where indicated, with an shRNA plasmid targeting FOXM1 (adapted for mouse FOXM1 sequence targeting) a scrambled control shRNA plasmid, or ARQ24 or ARQ65 plasmids. Christensen et al, PLoS One, 8(1):e54556 (2013). The following day, cells and drugs were distributed to 96-well plates. 24 hours later, luciferase activity was assessed by a dual luciferase assay kit (Promega) on the Tecan plate reader. Samples were run in quadruplicates and a Student's t test was performed to determine significance, where p<0.05 was considered significant.\nThe ability of thiostrepton to inhibit AR activity in additional neuronal cells, including ReNcell CX cells PC12 cells, and in rat L6 skeletal muscle cells was examined (FIG. 2B). Donato et al, BMC Neurosci, 8:36 (2007); Yaffe, Proc Natl Acad Sci USA, 61(2):477-83 (1968).\nSBMA is caused by the activity of polyglutamine-expanded AR, and experiments were conducted to investigate the effects of thiostrepton against polyglutamine-expanded AR. […]"}}, "data": [{"smiles": "C=C(NC(=O)C(=C)NC(=O)c1csc(C2=N[C@@H]3c4csc(n4)[C@H]4NC(=O)c5csc(n5)[C@H]([C@](C)(O)[C@@H](C)O)NC(=O)[C@H]5CSC(=N5)/C(=C/C)NC(=O)[C@H]([C@@H](C)O)NC(=O)c5csc(n5)[C@]3(CC2)NC(=O)[C@H](C)NC(=O)C(=C)NC(=O)[C@H](C)NC(=O)[C@H]([C@@H](C)CC)N[C@@H]2C=Cc3c([C@H](C)O)cc(nc3[C@H]2O)C(=O)O[C@@H]4C)n1)C(N)=O", "note": "[thiostrepton]", "values": [{"measurement": "plasma levels", "setting": "[1]; rats, 1, 10, 100 mg/kg IP three times a week for four weeks, one hour after final dose", "result": "dose-dependent increase"}, {"measurement": "spinal fluid level relative to plasma", "setting": "[1]; rats, IP, one hour after final dose", "result": "much lower levels than the plasma"}, {"measurement": "spinal fluid concentration relative to IC50 in luciferase assay", "setting": "[1]; rats, high dose", "result": "above its IC50"}, {"measurement": "levels of drug in the spinal fluid", "setting": "[1]; rats, high dose (100 mg/kg) IP, one hour after final dose", "result": "measurable levels"}, {"measurement": "expression of FOXM1 in the spinal cord, scored by veterinary pathologist", "setting": "[2]; 100 mg/kg per day, four weeks, IP osmotic pumps", "result": "significantly reduced"}, {"measurement": "FOXM1 staining intensity, Image J pixel density", "setting": "[2]; spinal cord, relative to untreated", "result": "lower intensity"}, {"measurement": "inhibition of AR activity (luciferase)", "setting": "[3]", "result": "efficiently inhibited AR activity"}]}]}
